Data: BindingDB's records for doi:10.1021/jm9903242 (Agouron Pharmaceuticals, 2000)

Assay: Antiviral activity using H1HeLa cells (ATCC) infected with HRV-14

SMILES | EC50
CCOC(=O)/C=C/c1cccc(C(N)=O)c1 [3-(3-Carbamoyl-phenyl)-acrylic acid ethyl ester] | 15.9 µM
CCOC(=O)/C=C/c1cc(C(N)=O)ccc1C [3-(5-Carbamoyl-2-methyl-phenyl)-acrylic acid ethyl ester] | > 100 µM
COC(=O)/C=C/c1cccc(C(N)=O)c1 [3-(3-Carbamoyl-phenyl)-acrylic acid methyl ester] | 150 µM
CCOC(=O)/C=C/c1cc(CO)cc(C(N)=O)c1 [3-(3-Carbamoyl-5-hydroxymethyl-phenyl)-acrylic acid ethyl ester] | > 100 µM
NC(=O)c1cccc(/C=C/C(=O)c2ccco2)c1 [3-(3-Furan-2-yl-3-oxo-propenyl)-benzamide] | > 71 µM
CN(C)c1ccc(C(=O)/C=C/c2cccc(C(N)=O)c2)cc1 [3-[3-(4-Dimethylamino-phenyl)-3-oxo-propenyl]-benzamide] | > 15 µM
NC(=O)c1cccc(/C=C/C(=O)OCCc2ccccc2)c1 [3-(3-Carbamoyl-phenyl)-acrylic acid phenethyl ester] | 100 µM
CCOC(=O)/C(C#N)=C/c1cccc(C(N)=O)c1 [3-(3-Carbamoyl-phenyl)-2-cyano-acrylic acid ethyl ester] | > 100 µM
COc1ccc(C(=O)/C=C/c2cccc(C(N)=O)c2)cc1 [3-[3-(4-Methoxy-phenyl)-3-oxo-propenyl]-benzamide] | > 22 µM
CCOC(=O)/C=C/c1ccc(OCc2ccccc2)c(C(N)=O)c1 [3-(4-Benzyloxy-3-carbamoyl-phenyl)-acrylic acid ethyl ester] | > 320 µM
CC(=O)C=Cc1cccc(C(N)=O)c1 [3-(3-Oxo-but-1-enyl)-benzamide] | 32 µM
NC(=O)c1cccc(/C=C/C(=O)c2ccccn2)c1 [3-(3-Oxo-3-pyridin-2-yl-propenyl)-benzamide] | 50 µM
NC(=O)c1cccc(/C=C/C(=O)c2ccccc2)c1 [3-(3-Oxo-3-phenyl-propenyl)-benzamide] | 28 µM
NC(=O)c1cccc(/C=C/C(=O)OCCO)c1 [3-(3-Carbamoyl-phenyl)-acrylic acid 2-hydroxy-ethyl ester] | 20 µM
NC(=O)c1ccc2c(c1)C=CC2=O [1-Oxo-1H-indene-5-carboxylic acid amide] | > 20 µM
CCOC(=O)/C=C/c1cc(O)cc(C(N)=O)c1 [3-(3-Carbamoyl-5-hydroxy-phenyl)-acrylic acid ethyl ester] | > 100 µM

Now those with a lower EC50, led by results:

EC50 | SMILES
5.8 µM | CCOC(=O)/C=C/c1cc(CN(CC)Cc2ccncc2)cc(C(N)=O)c1 [3-{3-Carbamoyl-5-[(ethyl-pyridin-4-ylmethyl-amino)-methyl]-phenyl}-acrylic acid ethyl ester]
5.6 µM | CCOC(=O)/C=C/c1cc(CSc2nnc(-c3ccccn3)o2)cc(C(N)=O)c1 [3-[3-Carbamoyl-5-(5-pyridin-2-yl-[1,3,4]oxadiazol-2-ylsulfanylmethyl)-phenyl]-acrylic acid ethyl ester]
5.6 µM | NC(=O)c1cccc(/C=C/C(=O)OCc2ccccc2)c1 [3-(3-Carbamoyl-phenyl)-acrylic acid benzyl ester]
2.5 µM | CCOC(=O)/C=C/c1cc(CN2CCN(c3ccccn3)CC2)cc(C(N)=O)c1 [3-[3-Carbamoyl-5-(4-pyridin-2-yl-piperazin-1-ylmethyl)-phenyl]-acrylic acid ethyl ester]
1.8 µM | CCOC(=O)/C=C/c1cc(CN2CCN(C(=O)OCC)CC2)cc(C(N)=O)c1 [4-[3-Carbamoyl-5-(2-ethoxycarbonyl-vinyl)-benzyl]-piperazine-1-carboxylic acid ethyl ester]
1 µM | CCOC(=O)/C=C/c1cc(CN2CCN(c3ncccn3)CC2)cc(C(N)=O)c1 [3-[3-Carbamoyl-5-(4-pyrimidin-2-yl-piperazin-1-ylmethyl)-phenyl]-acrylic acid ethyl ester]
0.6 µM | CCOC(=O)/C=C/c1cc(CN2CCN(c3ccccc3C#N)CC2)cc(C(N)=O)c1 [3-{3-Carbamoyl-5-[4-(2-cyano-phenyl)-piperazin-1-ylmethyl]-phenyl}-acrylic acid ethyl ester]
